Results reported in patent US7772429B2, “Diphenylazetidinone with improved physiological properties, process for its preparation, medicaments comprising this compound, and its use” (Sanofi-Aventis Deutschland GmbH, priority 2003, dated 2010).
≈ marks a conversion by molar mass, not a printed value.

Key:
[1] = Stability in solution in aqueous buffers (HPLC/UV); type: physicochemical; details: for Increase of the area of the impurities in percent: 24 hours at 37° C.
Experimental: The stability of dissolved compound I and of dissolved C1 was determined in aqueous buffers in the pH range 1.2-8.0. 1 mg of the compound in question was weighed into a 5 ml measuring flask. A small amount of acetonitrile was used to dissolve the substance. The flask was then filled up to the mark with the aqueous buffer. The precipitated compound was centrifuged and the clear supernatant was then tested for stability in solution for 24 hours at 37° C. The samples were evaluated using HPLC/UV.

[2] = Solubility in aqueous buffers, FaSSIF and FeSSIF (HPLC/UV); type: physicochemical; details: for solubility at 4 h: 25 °C, thermodynamic from solid
Experimental: FaSSIF (fasted State Simulating Intestinal Fluid) and FeSSIF (Fed State Simulating Intestinal Fluid) media which reflect the pH/solubilization conditions in the upper small intestine in the pre- and postprandial state, respectively, were used to test this improved solubility.
0.5 mg of the compound to be tested was weighed exactly into an Eppendorf cap, and 0.5 ml of the solvent in question (aqueous buffer) was added. The Eppendorf cap was then introduced into a thermomixer and, at 25° C., shaken at 1 400 rpm for 4 hours.
The Eppendorf cap was then introduced into a centrifuge. Following centrifugation, an aliquot of the supernatant was used to determine the amount dissolved, using HPLC/UV analysis.

[3] = tested on: cholesterol absorption (uptake of 14C-cholesterol by the liver); assay: Cholesterol absorption test: uptake of 14C-cholesterol by the liver; type: in vivo, NMRI mice; details: dose at which uptake of 14C-cholesterol by the liver is halved vs control group; mouse, peroral
[4] = FaSSIF, repetition of the tests
[5] = FeSSIF, repetition of the tests
[6] = aqueous buffer, pH 1.2, simulated gastric fluid, pH 1.2 aqueous buffer, 4 hours
[7] = aqueous buffer, pH 4.5, aqueous buffer, 4 hours
[8] = aqueous buffer, pH 6.8, aqueous buffer, 4 hours
[9] = aqueous buffer, pH 8, aqueous buffer, 4 hours
[10] = based on an available volume of 250 ml (Biopharmaceutical Classification System), best case

SMILES	Increase of the area of the impurities in percent ([1]; pH 1.2)	Increase of the area of the impurities in percent ([1]; pH 6.8)	Increase of the area of the impurities in percent ([1]; pH 8.0)	solubility at 4 h ([2]; FaSSIF, 4 hours)	solubility at 4 h [2, 4]	solubility at 4 h ([2]; FeSSIF, 4 hours)	solubility at 4 h [2, 5]	solubility at 4 h [2, 6]	solubility at 4 h [2, 7]	solubility at 4 h [2, 8]	solubility at 4 h [2, 9]	soluble dose [2, 10]	soluble dose ([2]; based on an available volume of 250 ml, worst case)	solubility at 4 h ([2]; water, shaken 4 hours)	times more stable than C1 ([1]; depending on the pH, relative to C1)	pH of the water sample (Water (pH)) ([2]; Water, 25° C., shaken 4 hours)	ED50 (liver) [3]
COc1ccc([C@@H]2[C@@H](CC[C@H](O)c3ccc(F)cc3)C(=O)N2c2ccc(CNC(=O)CCCCCCCCCCCNC(=O)[C@H](O)[C@@H](O)[C@H](O)[C@H](O)CO)cc2)cc1 [Example C1, reference compound]	13.3%	0.5%	4.6%	5 µg/mL (≈ 6.17 µM)	6 µg/mL (≈ 7.41 µM)	18 µg/mL (≈ 22.2 µM)	20 µg/mL (≈ 24.7 µM)	< 1 µg/mL	< 1 µg/mL	< 1 µg/mL	< 1 µg/mL	~5 mg	1.25 mg	< 1 µg/mL	–	–	–
COc1ccc([C@@H]2[C@@H](CC[C@H](O)c3ccc(F)cc3)C(=O)N2c2ccc(CNC(=O)CCCCCCCCCCC(=O)NC[C@H](O)[C@@H](O)[C@H](O)[C@H](O)CO)cc2)cc1 [Example I, dodecanedioic acid 4-[(2S,3R)-3-[(S)-3-(4-fluorophenyl)-3-hydroxypropyl]-2-(4-methoxyphenyl)-4-oxoazetidin-1-yl]benzylamide ((2S,3R,4R,5R)-2,3,4,5,6-pentahydroxyhexyl)amide]	4.9%	0%	0.2%	28 µg/mL (≈ 34.6 µM)	43 µg/mL (≈ 53.1 µM)	454 µg/mL (≈ 561 µM)	290 µg/mL (≈ 358 µM)	3 µg/mL (≈ 3.7 µM)	4 µg/mL (≈ 4.94 µM)	2 µg/mL (≈ 2.47 µM)	2 µg/mL (≈ 2.47 µM)	~100 mg	–	3 µg/mL (≈ 3.7 µM)	at least 2.7 times	6.8	0.005 mg/mouse
